One may read the IC50 as the concentration that inhibits the measured activity by half.

The test in a line: Inhibition of human STING in human THP-1 Dual cells assessed as secreted luciferase reporter of interferon stimulated gene (ISG) measured after 24 hrs incubation by QUANTI-Luc detection assay. (In general: In a reporter assay the amount or activity of a reporter protein is the signal.)

`O=C(Nc1c[nH]c2ccccc12)N1CCc2[nH]c3c(Cl)c(Cl)ccc3c2C1`: the half-maximal inhibitory concentration (IC50) is 2.12 µM.
As to `O=C(Nc1c[nH]c2ccccc12)N1CCc2[nH]c3c(Cl)c(Cl)cc(Br)c3c2C1`, the IC50 turned out to be 2.05 µM.
With `Cn1ccc(-c2cc(Cl)c(Cl)c3[nH]c4c(c23)CN(C(=O)Nc2c[nH]c3ccccc23)CC4)n1`, the half-inhibitory concentration (IC50) is greater than 10 µM.
`Cc1ccc2c(NC(=O)N3CCc4[nH]c5c(Cl)c(Cl)ccc5c4C3)c[nH]c2c1`: the IC50 is greater than 10 µM.
Consider `COc1ccc2c(NC(=O)N3CCc4[nH]c5c(Cl)c(Cl)ccc5c4C3)c[nH]c2c1`, for which the IC50 is greater than 10 µM.
Under `O=C(Nc1c[nH]c2cc(F)ccc12)N1CCc2[nH]c3c(Cl)c(Cl)ccc3c2C1` stands 3.18 µM; under `O=C(Nc1c[nH]c2cc(Cl)ccc12)N1CCc2[nH]c3c(Cl)c(Cl)ccc3c2C1`, 3.31 µM.
Under `COc1ccc2[nH]cc(NC(=O)N3CCc4[nH]c5c(Cl)c(Cl)ccc5c4C3)c2c1` stands 2.38 µM; under `O=C(Nc1c[nH]c2ccc(F)cc12)N1CCc2[nH]c3c(Cl)c(Cl)ccc3c2C1`, 2.4 µM.
Under `O=C(Nc1c[nH]c2ccc(Br)cc12)N1CCc2[nH]c3c(Cl)c(Cl)ccc3c2C1` stands 0.791 µM; under `O=C(Nc1c[nH]c2ccc(F)cc12)N1CCc2oc3c(Cl)c(Cl)ccc3c2C1`, 0.382 µM; under `O=C(Nc1c[nH]c2ccc(Br)cc12)N1CCc2oc3c(Cl)c(Cl)ccc3c2C1`, 0.353 µM.
Turning to `O=C(Nc1ccc2c(c1)OC(F)(F)O2)Nc1c[nH]c2ccccc12`, the IC50 is 0.018 µM.
In the case of `O=C(Nc1cccc2c1OC(F)(F)O2)Nc1c[nH]c2ccccc12`, the IC50 was found to be 1.83 µM.
Under `O=C(Nc1ccc2c(c1)OC(F)(F)C(F)(F)O2)Nc1c[nH]c2ccc(F)cc12` stands 0.11 µM; under `O=C(Nc1ccc2c(c1)OCO2)Nc1c[nH]c2ccc(F)cc12`, 3.47 µM; under `O=C(Nc1ccc2c(c1)OCCO2)Nc1c[nH]c2ccc(F)cc12`, 1.35 µM.
`O=C(Nc1ccc2c(c1)COB2O)Nc1c[nH]c2ccc(F)cc12`: the IC50 is greater than 10 µM.
As to `O=C(Nc1ccc2c(c1)CCN2)Nc1c[nH]c2ccc(F)cc12`, the IC50 is greater than 10 µM.
On to `O=C(Nc1ccc2c(c1)NCC2)Nc1c[nH]c2ccc(F)cc12`, for which the IC50 was found to be 1.22 µM.
In the case of `CN1CCc2cc(NC(=O)Nc3c[nH]c4ccc(F)cc34)ccc21`, the IC50 came to 1.18 µM.
Under `O=C(Nc1ccc2c(c1)OC(F)(F)O2)Nc1c[nH]c2ccc(Br)cc12` stands 0.071 µM; under `O=C(Nc1ccc2c(c1)OC(F)(F)O2)Nc1c[nH]c2ccc(Cl)cc12`, 0.066 µM.
Take `C=CC(=O)Nc1ccc2[nH]cc(NC(=O)Nc3ccc4c(c3)OC(F)(F)O4)c2c1`: the IC50 is greater than 10 µM.
As to `CCOP(=O)(Cc1ccc2[nH]cc(NC(=O)Nc3ccc4c(c3)OC(F)(F)O4)c2c1)OCC`, the IC50 was greater than 10 µM.
Under `C#Cc1ccc2[nH]cc(NC(=O)Nc3ccc4c(c3)OC(F)(F)O4)c2c1` stands 0.119 µM; under `O=C(Nc1ccc2c(c1)OC(F)(F)O2)Nc1c[nH]c2ccc(C#CC(F)(F)F)cc12`, greater than 10 µM; under `O=C(Nc1ccc2c(c1)OC(F)(F)O2)Nc1c[nH]c2ccc(C#CC3CC3)cc12`, 0.258 µM.
As to `CC(=O)OCC#Cc1ccc2[nH]cc(NC(=O)Nc3ccc4c(c3)OC(F)(F)O4)c2c1`, the IC50 was 0.489 µM.
In the case of `O=C(Nc1ccc2c(c1)OC(F)(F)O2)Nc1c[nH]c2ccc(C#CCO)cc12`, the IC50 is 2.19 µM.
For `Cn1cc(C#Cc2ccc3[nH]cc(NC(=O)Nc4ccc5c(c4)OC(F)(F)O5)c3c2)cn1`, the half-inhibitory concentration (IC50) came out at 0.264 µM.
Regarding `COC(=O)/C=C/c1ccc2[nH]cc(NC(=O)Nc3ccc4c(c3)OC(F)(F)O4)c2c1`, the IC50 was 3.65 µM.
Under `N#C/C=C/c1ccc2[nH]cc(NC(=O)Nc3ccc4c(c3)OC(F)(F)O4)c2c1` stands greater than 10 µM; under `N#CC/C=C/c1ccc2[nH]cc(NC(=O)Nc3ccc4c(c3)OC(F)(F)O4)c2c1`, 0.116 µM; under `COCCOCCn1cc(-c2ccc3[nH]cc(NC(=O)Nc4ccc5c(c4)OC(F)(F)O5)c3c2)nn1`, 2.49 µM.
Under `O=C(Nc1ccc2c(c1)OC(F)(F)O2)Nc1c[nH]c2ccc(-c3cn(CCN4CCOCC4)nn3)cc12` stands greater than 10 µM.
For `O=C(Nc1ccc2c(c1)OC(F)(F)O2)Nc1c[nH]c2ccc(-c3cn(CCO)nn3)cc12`, the concentration for half-maximal inhibition (IC50) was greater than 10 µM.
Under `Fc1ccc2[nH]cc(Nc3nc4cc5c(cc4[nH]3)OC(F)(F)O5)c2c1` stands 0.192 µM; under `Fc1ccc2[nH]cc(Nc3nc4cc(C(F)(C(F)(F)F)C(F)(F)F)ccc4[nH]3)c2c1`, 0.269 µM; under `Fc1ccc2[nH]cc(Nc3nc4cc(C5CCCC5)ccc4[nH]3)c2c1`, 0.043 µM.
Under `Fc1cc2[nH]cc(Nc3nc4cc(C5CCCC5)ccc4[nH]3)c2cc1F` stands 0.216 µM.
Take `Fc1cnc2[nH]cc(Nc3nc4cc(C5CCCC5)ccc4[nH]3)c2c1`: the IC50 was found to be 0.044 µM.

The record behind these values is BindingDB's records for PubMed 40188441 (Shanghai Jiao Tong University).
